Tests used:
Type in all cases: in vivo, mice
[1] = tested on: laser-induced choroidal neovascularization (CNV) model; assay: Laser-induced CNV model: area of CNV in choroidal flat mount; settings: Day 14
Experimental: After fluorescence fundus photography had been performed as described above in the section (1), 0.5 mL of fluorescein isothiocyanate dextran (FITC-dextran; 20 mg/mL, Sigma-Aldrich) was administered into the tail vein of the mice. The mice were euthanized by cervical dislocation, and the eyeball was extirpated. The extirpated eyeball was fixed in a 4% paraformaldehyde phosphate buffer for 12 hours. After that, the cornea and lens were excised under a microscope, and the remaining vitreous artery was removed with forceps. Further, the retina was removed, and the choroid was notched 8 points and embedded with Fluoromount (Diagnostic BioSystems) in a flat state to generate a choroidal flat mount specimen. The choroidal flat mount was photographed using a confocal laser scanning microscope (FLUOVIEW FV10i; Olympus, Tokyo, Japan). Next, on the basis of the photographed image, the CNV was encircled using analysis software OLYMPUS FLUOVIEW FV10i (Olympus), and the area thereof was determined as the area of CNV (μm^2). All analyses were performed in a blinded manner. After fluorescence fundus photography had been performed as described above in the section (1), a choroidal flat mount specimen was generated by the same method as in Example 1. The choroidal flat mount was photographed using an all-in-one fluorescence microscope (BZ-X710; Keyence, Osaka, Japan). Next, on the basis of the photographed image, the CNV was encircled using image editing software Image J, and the area thereof was determined as the area of CNV (μm^2). All analyses were performed in a blinded manner.

Body weight in CNV model = settings: oral once daily dosing, vs vehicle group
Description: A case in which FA was unable to be performed owing to cloudiness caused by a flaw in the eye produced before the FA evaluation and a case in which CNV was connected at the time of the evaluation of the area of CNV were excluded from analysis, and the above-mentioned results were each calculated as a mean of 11 or 12 mice in each group. […] A case in which FA was unable to be performed owing to cloudiness caused by a flaw in the eye produced before the FA evaluation and a case in which CNV was connected at the time of the evaluation of the area of CNV were excluded from analysis, and the above-mentioned results were each calculated as a mean of 12 mice in each group.

[2] = tested on: retinal vein occlusion (RVO) model; assay: Retinal vein occlusion (RVO) model, oral: thickness of retinal inner nuclear layer (INL); settings: dose of at least 0.03 mg/kg or more, 12 hours before and immediately after laser irradiation, 24 hours after irradiation
Experimental: Eight-week-old mice (Japan SLC, Inc., ddy strain) were anesthetized by intramuscularly administering 10 mL/kg of a mixed anesthetic solution diluted so as to contain ketamine (120 mg/kg) and xylazine (6 mg/kg). After that, 0.15 mL of rose bengal (20 mg/kg; WAKO) was administered into the tail vein, and a vein three head systems away from the optic nerve head of the right eye of the mice was irradiated with a laser to occlude a retinal vein. For the occlusion, the laser irradiation was performed 10 times to 15 times per vein. For the laser irradiation, an attachment of a fundus photography apparatus Micron 4 (Phoenix Research Laboratories, Inc., Pleasanton, Calif., USA) was used (wavelength: 532 nm, spot size: 50 μm, irradiation time: 5,000 ms, laser output: 50 mW). Three veins were occluded per eye, and it was confirmed with photographs of the fundus that the laser-irradiated veins had been completely occluded. […]
After 24 hours from the laser irradiation, the mice were euthanized by cervical dislocation, the eyeball was extirpated, and histological evaluation was performed by a hematoxylin-eosin staining method. In addition, the thickness of the retinal inner nuclear layer (INL) was measured at intervals of 240 μm on both sides, i.e., ear side and nose side from the center of the optic nerve head. […]

C[C@H](Oc1ccc(-c2nc(-c3ccc4[nH]cnc4c3)no2)cc1C(F)(F)F)C(F)(F)F.Cl [Compound 1, 5-{5-[3-(trifluoromethyl)-4-{[(2S)-1,1,1-trifluoropropan-2-yl]oxy}phenyl]-1,2,4-oxadiazol-3-yl}-1H-benzimidazole monohydrochloride]
area of CNV ([1]; 0.03 mg/kg orally once daily): a decrease in area of CNV
area of CNV ([1]; 0.3 mg/kg orally once daily): a significant decrease was found
reduction ratio of the area of CNV ([1]; 0.3 mg/kg orally once daily): 34%
change in body weight between the groups before sampling (Body weight in CNV model): a significant change in body weight between the groups before sampling was not found
thickening of the INL (retinal edema) [2]: ameliorated the thickening of the INL

— patent US20210113529A1, “MEDICINE FOR PREVENTING OR TREATING OPHTHALMIC DISEASE ASSOCIATED WITH ENHANCED INTRAOCULAR NEOVASCULARIZATION AND/OR INTRAOCULAR VASCULAR PERMEABILITY” (KYOTO UNIVERSITY, priority 2018, published 2021)
